Data set [1] has as its system resistant primary R5 isolate YU2. The data set can be described thus: Luciferase-based HIV-1 infectivity assay, YU2. Format: cell-based. The note with it: compared to T649v. An excerpt: Also the direct inhibitory activity of modified polypeptides and the antibodies targeted thereto can be quantified based upon their capacity to directly block HIV infection of CD4-positive and CCR5-expressing canine thymus cells. Recombinant HIV-1 viruses (eg. HXBc2, YU2, and additional strains available through the NIH AIDS Research and Reference Reagent Program) expressing firefly luciferase and containing the indicated envelope glycoproteins can be used to infect Cf2Th-CD4-CCR5/CXCR4 cells in the presence of serially diluted modified HIV-1 gp41 polypeptides or antibodies targeted thereto After 48 hours, the cells are lysed and luciferase activity is quantified (Si, Z. H., M. Cayabyab, and J. Sodroski, Journal of Virology, 2001. 75(9): p. 4208-4218 Si, Z. H., et al., PNAS, 2004. 101(14): p. 5036-5041). The identical experiment is performed with the amphotropic murine leukemia virus (AMLV), to monitor for any nonspecific effects of the modified polypeptides or antibodies. […]
HIV-1 infectivity assays were performed using known methods (Madani et al., 2007 Inhibition of human immunodeficiency virus envelope glycoprotein-mediated single cell lysis by low-molecular-weight antagonists of viral entry. J Virol, 81: 532-538; and Si et al., 2001 Envelope glycoprotein determinants of neutralization resistance in a simian-human immunodeficiency virus (SHIV-HXBc2P 3.2) derived by passage in monkeys. J Virol, 75:4208-4218; both incorporated herein by reference). […] D-luciferin (50 μL of 1 mM stock in 100 μL luciferin buffer) is then added to each well and luciferase activity measured using a luminometer (EG&G Berthold).
To assess the functional impact of hydrocarbon stapling on gp41-based fusion inhibitor activity, SAH-gp41 peptides were tested and compared to their unmodified counterparts in a luciferase-based HIV-1 infectivity assay. Recombinant HIV-1 bearing the envelope glycoproteins from three distinct HIV-1 strains, HXBc2, ADA, and HXBc2P 3.2, and a negative control virus bearing the amphotropic murine leukemia virus (A-MLV) envelope glycoproteins, were evaluated. […]

In data set [2] the test system is HIV-1 strains HXBc2, ADA, and HXBc2P 3.2. The data set can be described thus: Luciferase-based HIV-1 infectivity assay, three strains. It counts as cell-based. As to the method:
Also the direct inhibitory activity of modified polypeptides and the antibodies targeted thereto can be quantified based upon their capacity to directly block HIV infection of CD4-positive and CCR5-expressing canine thymus cells. […] The identical experiment is performed with the amphotropic murine leukemia virus (AMLV), to monitor for any nonspecific effects of the modified polypeptides or antibodies.
(§1) HIV-1 infectivity assays were performed using known methods (Madani et al., 2007 Inhibition of human immunodeficiency virus envelope glycoprotein-mediated single cell lysis by low-molecular-weight antagonists of viral entry. J Virol, 81: 532-538; and Si et al., 2001 Envelope glycoprotein determinants of neutralization resistance in a simian-human immunodeficiency virus (SHIV-HXBc2P 3.2) derived by passage in monkeys. J Virol, 75:4208-4218; both incorporated herein by reference). […] Virus-containing supernatants were harvested 24-30 hr after transfection, filtered, aliquoted, and stored at −80° C. Target cells were seeded at a density of 6×10^3 cells/well in 96-well plates 24 hours prior to infection. Cf2Th-CD4-CCR5 cells were used for infections by viruses with the ADA, YU2, and A-MLV envelope glycoproteins, and Cf2Th-CD4-CXCR4 cells used for HXBc2, HXBc2P 3.2, and A-MLV. On the day of infection, the structured peptides (0-3 μM) were added to recombinant viruses (10,000 RT units) to a final volume of 50 μL and incubated at 37° C. for 30 min. Media was then removed and the target cells incubated with virus-peptide mixture for 48 hours at 37° C. The media was again removed and the cells lysed with 30 μL of passive lysis buffer (Promega) and three freeze-thaw cycles.
Recombinant HIV-1 bearing the envelope glycoproteins from three distinct HIV-1 strains, HXBc2, ADA, and HXBc2P 3.2, and a negative control virus bearing the amphotropic murine leukemia virus (A-MLV) envelope glycoproteins, were evaluated.

A further data set relates to pepsin. The data set can be described thus: Protease resistance assay, pepsin at pH 2. The procedure, abridged:
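Peptide from a 1 mM DMSO stock was incubated with pepsin in its appropriate buffer. Intact peptide was quantified over time by serial LC-MS injections, normalized to a 100 μM acetylated tryptophan carboxamide internal standard. Half-life came from nonlinear regression of the exponential decay.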

The nature of the next data set: in vivo. The note with it: mouse, plasma, iv.
The subject of data set [3] is HIV-1 HXBc2 virus bearing HR1 double mutations V38A/N42T and V38E/N42S. The data set can be described thus: HIV-1 infectivity assay, enfuvirtide-resistant HR1 double mutants. Format: cell-based. As for the experimental part:
as §1

The structures appear in SMILES notation. Bridge positions count the residues as written; N and C are the ends. Square brackets hold non-standard residues; d marks the D form. Peptide text beside a SMILES is read from it. S5 = C=CCCC[C@](C)(N)C(=O)O; Nle = CCCC[C@H](N)C(=O)O

Source text for in vivo: Plasma concentration, mean+standard error; ND, nondetectable.

Usually half-life stands for the time in which the quantity being followed falls by half. Read a low half-life as rapid decline. The term Cmax denotes the peak of the concentration-time curve. For the molecule `CCCC[C@H](NC(C)=O)C(=O)N[C@H](C(=O)N[C@@H](Cc1c[nH]c2ccccc12)C(=O)N[C@@]1(C)CCCC=CCCC[C@@](C)(C(=O)N[C@@H](CCC(=O)O)C(=O)N[C@H](C(=O)N[C@@H](CC(N)=O)C(=O)N[C@@H](CC(N)=O)C(=O)N[C@@H](Cc2ccc(O)cc2)C(=O)N[C@H](C(=O)N[C@@H](CO)C(=O)N[C@@H](CC(C)C)C(=O)N[C@H](C(=O)N[C@@H](Cc2c[nH]cn2)C(=O)N[C@@H](CO)C(=O)N[C@@H](CC(C)C)C(=O)N[C@H](C(=O)N[C@@H](CCC(=O)O)C(=O)N[C@@H](CCC(=O)O)C(=O)N[C@@H](CO)C(=O)N[C@@H](CCC(N)=O)C(=O)N[C@@H](CC(N)=O)C(=O)N[C@@H](CCC(N)=O)C(=O)N[C@@]2(C)CCCC=CCCC[C@@](C)(C(=O)N[C@@H](CCC(N)=O)C(=O)N[C@@H](CCC(=O)O)C(=O)N[C@@H](CC(C)C)C(=O)N[C@@H](CC(C)C)C(=O)N[C@@H](CCC(=O)O)C(N)=O)NC(=O)[C@H](CC(N)=O)NC(=O)[C@H](CCCCN)NC(=O)[C@H](CCC(=O)O)NC2=O)[C@@H](C)CC)[C@@H](C)CC)[C@@H](C)O)[C@@H](C)CC)NC(=O)[C@H](CC(=O)O)NC(=O)[C@H](Cc2c[nH]c3ccccc23)NC(=O)[C@H](CCC(=O)O)NC1=O)[C@@H](C)O` [SAH-gp41(626-662)(A, F)] (Ac-[Nle]TW[S5]EWD[S5]EINNYTSLIHSLIEESQNQ[S5]EKN[S5]QELLE-NH2; staple 4-8, 28-32; N-terminus and C-terminus assumed), the “CL” value was determined as 1.0 mL/min/kg. Also, the “anti-YU2 activity, in words” value in data set [1] was “enhanced anti-YU2 activity”. Further, in data set [2], the “anti-HIV-1 (anti-viral) activity, in words” value was “potent anti-viral activity”. For the same molecule, the half-life at 25 μM in the data set on pepsin (pepsin (isolated protease) in buffer, pH 2) is 34 h. In the data set on pepsin (pepsin at pH 2), the “acid protease resistance, in words” value was “striking acid protease resistance”. The peak level in the data set “in vivo” (Cmax) was 140 µg/mL. Besides, in data set [3], the “functional activity against HR1 double-mutant HIV-1, in words” value was “dose-responsively suppressed HIV-1 infectivity”.

The values above are taken from patent US10273290B2, “Hydrocarbon double-stapled stabilized HIV-1 GP41 heptad repeat domain peptides” (DANA-FARBER CANCER INSTITUTE, INC., priority 2009, dated 2019).
